Assay [1] is described as follows: Luminescence Cell-Based Dose Confirmation HTS to Identify Inhibitors of Platelet Dense Granule Release. [Related pubchem assays: 1663 (Primary HTS), 1678 (Summary of Project)]. It counts as functional.
The target in assay [2] is Luciferin 4-monooxygenase (Photinus pyralis, UniProt P08659). Kind of assay: inhibition of purified Photinus pyralis luciferase – biochemical, luminescence, dose response (AID 1891).
Assay [3] addresses T1, RNA-binding protein pos-1 (Caenorhabditis elegans, UniProt G5EF15).
T1 sequence (G5EF15 whole entry): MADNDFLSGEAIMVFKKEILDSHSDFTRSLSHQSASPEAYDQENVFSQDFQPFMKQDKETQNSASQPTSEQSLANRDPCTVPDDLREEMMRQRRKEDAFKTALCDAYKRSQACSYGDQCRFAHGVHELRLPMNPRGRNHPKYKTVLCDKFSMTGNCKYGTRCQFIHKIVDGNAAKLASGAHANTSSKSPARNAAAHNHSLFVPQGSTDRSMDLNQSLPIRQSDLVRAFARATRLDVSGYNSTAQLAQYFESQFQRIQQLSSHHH
Kind of assay: disruptors of C. elegans POS-1 RNA interaction – biochemical, fluorescence polarization, dose response (AID 1964).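 Further: purified POS-1 fused to maltose binding protein made in E. coli; potency of compounds blocking POS-1 binding to fluorescent RNA.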

For assay [4], the target named is T2, Zinc finger protein mex-5 (Caenorhabditis elegans, UniProt Q9XUB2).
T2 sequence (Q9XUB2 whole entry): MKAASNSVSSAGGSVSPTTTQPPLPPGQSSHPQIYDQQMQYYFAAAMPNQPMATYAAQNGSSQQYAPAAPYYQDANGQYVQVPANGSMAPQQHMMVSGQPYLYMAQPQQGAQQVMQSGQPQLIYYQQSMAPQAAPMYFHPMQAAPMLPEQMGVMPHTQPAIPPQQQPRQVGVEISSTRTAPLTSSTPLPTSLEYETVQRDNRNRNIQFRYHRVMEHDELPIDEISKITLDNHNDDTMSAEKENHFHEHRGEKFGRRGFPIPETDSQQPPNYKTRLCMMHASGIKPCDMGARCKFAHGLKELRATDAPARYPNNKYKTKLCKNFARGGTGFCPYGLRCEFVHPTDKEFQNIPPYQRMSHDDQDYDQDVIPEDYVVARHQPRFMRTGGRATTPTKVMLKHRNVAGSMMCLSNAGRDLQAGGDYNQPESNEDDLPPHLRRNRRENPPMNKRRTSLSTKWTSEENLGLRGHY
Briefly: potency of MEX-5 RNA-binding blockers – biochemical, C. elegans, fluorescence polarization, dose response (AID 1960).

Assay [5] can be described thus: luciferase reporter signal suppression in cells – H4 neuroglioma cells, luminescence, dose response (AID 1990). It counts as functional, cell-based.
The nature of assay [6]: alpha-synuclein stem-loop luciferase translation blockers – H4 neuroglioma cells, luminescence, confirmation (AID 1988). Format: functional, cell-based.
Assay [7] is described as follows: Luminescence Cell-Based Dose Response HTS to Identify Inhibitors of 5'UTR Stem-Loop Driven Prion Protein mRNA Translation in H4 Neuroglioblastoma Cells. [Related pubchem assays: 1827 (Project Summary), 1813 (Primary HTS)]. It counts as functional.
For assay [8], the target named is T3, Corticotropin-releasing factor receptor 2/Corticotropin-releasing factor-binding protein (Homo sapiens, UniProt P24387+Q13324).
T3 sequence (Q13324 whole entry): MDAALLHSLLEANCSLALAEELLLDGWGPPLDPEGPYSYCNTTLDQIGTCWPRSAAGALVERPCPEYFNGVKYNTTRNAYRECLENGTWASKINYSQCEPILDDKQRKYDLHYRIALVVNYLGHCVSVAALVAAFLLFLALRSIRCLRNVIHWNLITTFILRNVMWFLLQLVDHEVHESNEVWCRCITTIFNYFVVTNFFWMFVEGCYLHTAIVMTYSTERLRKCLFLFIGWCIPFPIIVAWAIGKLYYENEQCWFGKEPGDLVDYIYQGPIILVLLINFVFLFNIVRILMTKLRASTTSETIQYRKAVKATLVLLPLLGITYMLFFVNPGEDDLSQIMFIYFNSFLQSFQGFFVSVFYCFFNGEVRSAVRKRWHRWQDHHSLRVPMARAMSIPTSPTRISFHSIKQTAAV
T3 sequence (P24387 whole entry): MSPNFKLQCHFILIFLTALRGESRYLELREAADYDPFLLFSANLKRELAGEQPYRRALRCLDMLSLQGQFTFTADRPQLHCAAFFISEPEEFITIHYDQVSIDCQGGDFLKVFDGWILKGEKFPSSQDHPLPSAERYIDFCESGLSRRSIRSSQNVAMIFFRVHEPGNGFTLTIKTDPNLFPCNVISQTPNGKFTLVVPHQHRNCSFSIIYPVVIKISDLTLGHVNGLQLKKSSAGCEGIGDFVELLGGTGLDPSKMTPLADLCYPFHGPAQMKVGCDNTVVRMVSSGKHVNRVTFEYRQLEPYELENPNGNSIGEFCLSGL
Kind of assay: activators of CRF receptor 2 with binding protein – uHTS hits, confirmation (AID 602473). It counts as functional. The following applies: read-out: EC50_Mean.

Another assay concerns the target T4, Streptokinase A (Streptococcus pyogenes serotype M1, UniProt P10520).
T4 sequence (P10520 whole entry): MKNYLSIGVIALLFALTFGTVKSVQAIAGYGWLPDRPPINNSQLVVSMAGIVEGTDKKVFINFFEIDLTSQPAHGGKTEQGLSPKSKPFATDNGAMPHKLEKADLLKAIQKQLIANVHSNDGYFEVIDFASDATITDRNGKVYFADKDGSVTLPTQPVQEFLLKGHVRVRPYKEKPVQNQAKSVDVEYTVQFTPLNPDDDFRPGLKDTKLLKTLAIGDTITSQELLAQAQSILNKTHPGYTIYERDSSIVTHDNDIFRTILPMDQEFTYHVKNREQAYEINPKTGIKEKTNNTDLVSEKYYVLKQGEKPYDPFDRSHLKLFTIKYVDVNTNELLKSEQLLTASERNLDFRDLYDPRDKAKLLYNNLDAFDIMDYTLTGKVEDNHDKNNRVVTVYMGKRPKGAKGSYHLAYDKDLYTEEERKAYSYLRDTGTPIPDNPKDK
Briefly: viability-normalized secreted streptokinase activity reduction – plasminogen activation absorbance, OD405, dose response (AID 1914).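 Further: secreted streptokinase activity via plasminogen activation per viability signal from cell pellet.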 Format: functional, Streptococcus pyogenes M1 GAS.

Assay [9] concerns Streptococcus sp. 'group A'. Briefly: Streptococcus pyogenes SK(-)GAS viability under kanamycin – luminescence, BacTiterGlo, confirmation, counter-screen for streptokinase expression inhibitor project, dose response (AID 1900). It counts as functional, organism-based. In general terms: The purpose of a counterscreen is to sort out artefacts and off-target activity.
A further assay concerns Streptococcus. Kind of assay: GAS UMAA2166 growth inhibition – luminescence, BacTiterGlo, counter-screen for streptokinase expression inhibitor project, dose response (AID 1915).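 Further: potency for reduction of bacterial viability or growth.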 Format: functional, organism-based.
The nature of assay [10]: loss of viability in HepG2 cells – cell-based, CellTiter-Glo, cherry-picked, cytotoxicity control for Shn3 inhibitor project, dose response (AID 624134). It counts as functional. On the technique in general: In ATP-based viability assays light output follows the ATP content of the culture.
The nature of assay [11]: non-specific 3'UTR reporter inhibition in Clone20-Shn3RL – cell-based, Renilla luciferase, cherry-picked, counter-screen for Shn3 inhibitor project, dose response (AID 624133). It counts as functional.
A short description of assay [12]: reduction of Shn3 3'UTR-driven luciferase in osteoblasts – cell-based, Clone20 osteoblasts, firefly luciferase, cherry-picked, dose response (AID 624132).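 Further: firefly luciferase luminescence from reporter carrying the Shn3 3'UTR in osteoblasts.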 Format: functional.
A short description of assay [13]: Trypanosoma cruzi growth suppression in host cells – NIH3T3 host cells, beta-gal luminescence, confirmation (AID 2044).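 Further: intracellular parasites grown in NIH/3T3 mouse fibroblasts as host cells; luminescent beta-galactosidase reporter signal from transgenic T. cruzi replicating inside host cells; inhibitors lower the luminescence signal.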 Format: functional, cell-based.
A short description of assay [14]: NIH3T3 cell viability loss – ATP luminescence, mouse fibroblasts, counter-screen, dose response (AID 2010).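 Further: cells exposed to compound for about 90 hours before reading.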 It counts as functional, cell-based.

Active and inactive are the calls of the source. For most assays here, no stated cut-off is given here; in the data, actives have a measured EC50 and inactives only a lower limit.

Chain of Luciferin 4-monooxygenase (P08659 whole entry): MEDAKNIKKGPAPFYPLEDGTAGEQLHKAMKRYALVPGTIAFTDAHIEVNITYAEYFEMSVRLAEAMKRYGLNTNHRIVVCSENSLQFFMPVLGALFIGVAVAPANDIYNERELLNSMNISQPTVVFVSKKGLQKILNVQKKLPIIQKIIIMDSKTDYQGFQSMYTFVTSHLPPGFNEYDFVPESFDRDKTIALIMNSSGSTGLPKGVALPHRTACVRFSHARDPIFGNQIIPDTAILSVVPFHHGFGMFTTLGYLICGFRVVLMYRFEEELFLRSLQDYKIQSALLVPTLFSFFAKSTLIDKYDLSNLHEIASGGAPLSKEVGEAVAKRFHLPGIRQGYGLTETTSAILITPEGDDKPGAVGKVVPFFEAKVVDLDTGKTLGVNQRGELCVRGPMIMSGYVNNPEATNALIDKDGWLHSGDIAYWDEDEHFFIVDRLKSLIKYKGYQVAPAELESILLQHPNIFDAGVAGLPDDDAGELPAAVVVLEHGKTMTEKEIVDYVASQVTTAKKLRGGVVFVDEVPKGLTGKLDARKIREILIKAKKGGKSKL

Turning to `COc1cccc(-c2nc(C[S+]([O-])CC(=O)NCCc3ccc(C)cc3)c(C)o2)c1` (stereo not given), the EC50 in [1] and in assay [2] was > 112 µM (not active) in each case.

In the case of `COc1ccc(N2CCN(S(=O)(=O)c3c(C)nc4sccn4c3=O)CC2)cc1`, the EC50 in [1] and in [2] was > 112 µM (not active) each time.

Turning to `Cc1c(C(=O)N2CCCCC2)c(S(=O)(=O)N(C)Cc2ccccc2)c(C)n1C`, the EC50 in [1] and in assay [2] was > 112 µM (not active) each time.

For the compound `CCCCCN1C=CC=C/C1=C\C=C(C#N)C#N`, the EC50 in [3] was 30.3 µM (inconclusive); in [4], > 300 µM (not active).

For `C/C=C(/C)C(=O)Nc1cccc(C2=NOC3(C2)C[C@H](C(N)=O)N(C(=O)COc2ccc(Cl)cc2)C3)c1` (stereo not given in full), the figures for the EC50 in assay [5], in assay [6] and in [7] were > 120 µM (not active), > 120 µM (not active) and 87.6 µM (active), respectively.

Regarding `O=C(NCc1cc(C(F)(F)F)ccc1Cl)c1cccc2c1C(=O)c1ccc(N3CCCCC3)cc1S2(=O)=O`, in assay [8], the EC50 is 6.26 µM (active).

Consider `CN(C)CCCN/C=C1\C(=O)NC(=O)N(CCc2ccc(F)cc2)C1=O`, for which the EC50 in [3] and in assay [4] was > 300 µM (not active) in each case.

With `CCn1c(=O)c([N+](=O)[O-])c(NCCc2ccc(OC)c(OC)c2)c2ccccc21`, the EC50 in assay [1] and in assay [2] was > 112 µM (not active) each time.

As to `CC(Oc1ccc(F)cc1)C(=O)Nc1ccccc1N1CCCCC1` (stereo not given), the EC50 was 10.3 µM (active) at Streptokinase A; 21 µM (active) in [1]; 11.8 µM (active) in assay [9]; 19.9 µM (active) with Streptococcus; 27.3 µM (active) in assay [2].

As to `COC(=O)C1CSc2[nH]c(=O)sc2C1c1ccccc1` (stereo not given), the EC50 in assay [3] is 7.13 µM (active); in [4], 7.46 µM (active).

On to `O=C(Nc1cccc(-c2nc3ccccc3o2)c1)c1ccc(N2C(=O)C3C4C=CC(C4)C3C2=O)cc1` (stereo not given), for which the EC50 was 10.5 µM (active) in [5], 9.98 µM (active) in assay [6] and > 120 µM (not active) in assay [7].

Consider `Cc1ccc(C(=O)C2=C(O)C(=O)N(Cc3ccco3)C2c2ccc(N(C)C)cc2)o1` (stereo not given), for which the EC50 in assay [3] and in [4] was > 300 µM (not active) each time.

Consider `O=C(CN1C(=O)c2cccc3cccc1c23)N1CCN(c2ccc(F)cc2)CC1`, for which the EC50 in assay [1] and in assay [2] was > 112 µM (not active) throughout.

Take `Cc1ccc(C(=O)N/N=C/c2ccc(-c3cccc(C(F)(F)F)c3)o2)cn1`: the values for the EC50 in assay [5], in assay [6] and in assay [7] were > 120 µM (not active), 11.9 µM (active) and > 120 µM (not active), respectively.

As usually defined, the AC50 is the concentration giving half of the maximal activity seen. Take `COc1ccc(CC(N)c2csc(NC(=O)Nc3cccc(C(F)(F)F)c3)n2)cc1` (stereo not given): the values for the AC50 in assay [10], in assay [11] and in assay [12] were 11 µM (active), 7.68 µM (active) and 8.4 µM (active), respectively.

For the compound `CC1CN(c2nc3ccccc3nc2C(C#N)C(=O)NC2CCCCC2)CC(C)O1` (stereo not given), the EC50 in assay [3] is > 300 µM (not active); in assay [4] it was > 300 µM (inconclusive).

Take `COc1cc(OC)c(C2C(C#N)=C(N)OC3=C2C(=O)CC(C)(C)C3)cc1OC` (stereo not given): the EC50 in assay [3] and in assay [4] was > 300 µM (not active) throughout.

`O=C(NCCCN1CCOCC1)C(=O)N/N=C/c1c2ccccc2cc2ccccc12`: the results for the EC50 in [5], in assay [6] and in [7] were 12.2 µM (active), 9.11 µM (active) and 13.9 µM (active), respectively.

As to `C=CCNc1nc(N)c([N+](=O)[O-])c(NC2CCCCC2)n1`, the EC50 in assay [5] is 28.9 µM (active); in assay [6], > 120 µM (not active); in assay [7], 0.21 µM (active).

Take `Brc1ccc2c(c1)OCCOCCOc1cc(Br)ccc1OCCOCCOCCO2`: the EC50 was 14.1 µM (active) in assay [5]; 1.04 µM (active) in [13]; > 60 µM (not active) in [14]; > 120 µM (not active) in assay [6]; 103 µM (active) in assay [7].

As to `CCCCc1ccc(Nc2nc(N3CCOCC3)nc(N3CCOCC3)n2)cc1`, the EC50 in [1] and in [2] was > 112 µM (not active) each time.

In the case of `CCOC(=O)C1=C(CNCc2ccc(F)cc2)NC(=O)NC1c1cccc([N+](=O)[O-])c1` (stereo not given), the EC50 in assay [1] and in assay [2] was > 112 µM (not active) each time.

`O=c1oc(Nc2ccc(F)cc2)nc2ccccc12`: the EC50 was 4.03 µM (active) in [1] and 8.06 µM (active) in assay [2].

In the case of `Cc1n[nH]c(NNC(=O)c2ccccc2)c1[N+](=O)[O-]`, the EC50 was 15.2 µM (active) in assay [3] and 4.96 µM (active) in [4].

In the case of `COc1cccc(/C=N/Nc2nnc(C)n2N)c1OCc1ccccc1Cl`, the EC50 in assay [5], in assay [6] and in assay [7] was > 120 µM (not active) in each case.

Regarding `C[C@H]1CN=C(N(C)C)N1CC1CCC(C(C)(C)C)CC1` (stereo not given in full), the AC50 is 41.5 µM (active) in [10], 20.3 µM (active) in [11] and 2.27 µM (active) in assay [12].

For the compound `COC(=O)c1cc(NC(=O)c2c(Cl)nc3sccn23)cc(C(=O)OC)c1`, the EC50 in assay [5] is 12.3 µM (active); in assay [6], 9.13 µM (active); in [7], 10.6 µM (active).

For `O=C(Cn1cc(C(=O)C(F)(F)F)c2ccccc21)NCc1ccco1`, the EC50 in assay [1] and in [2] was > 112 µM (not active) throughout.

These data come from ChEMBL document CHEMBL1201862, “PubChem BioAssay data set” (2004).
